Experimental data published in patent US10538555B2, “Macrocyclic inhibitors of the PD-1/PD-L1 and CD80(B7-1)/PD-L1 protein/protein interactions” (BRISTOL-MYERS SQUIBB COMPANY, priority 2014, dated 2020).
Where a SMILES comes first, the peptide text is derived from it. Bridges are numbered along the chain shown (N, C = ends). [ ]: non-standard residue; d: D form. ξ: configuration not given here. Trp(1-CH2COOH) = N[C@@H](Cc1cn(CC(=O)O)c2ccccc12)C(=O)O; Phe(3,4,5-F3) = N[C@@H](Cc1cc(F)c(F)c(F)c1)C(=O)O; NMePhe(4-F) = CN[C@@H](Cc1ccc(F)cc1)C(=O)O; Phe(4-F) = N[C@@H](Cc1ccc(F)cc1)C(=O)O; d(cisHyp) = O=C(O)[C@H]1C[C@@H](O)CN1; Hyp = O=C(O)[C@@H]1C[C@@H](O)CN1; NMeF = CN[C@@H](Cc1ccccc1)C(=O)O; hIle(4ξ) = CCC(C)C[C@H](N)C(=O)O; NMeNle = CCCC[C@H](NC)C(=O)O; Tle = CC(C)(C)[C@H](N)C(=O)O; NMeV = CN[C@H](C(=O)O)C(C)C; dNle = CCCC[C@@H](N)C(=O)O; Pip = O=C(O)[C@@H]1CCCCN1; dPip = O=C(O)[C@H]1CCCCN1; hSer = N[C@@H](CCO)C(=O)O; NMeA = CN[C@@H](C)C(=O)O; Orn = NCCC[C@H](N)C(=O)O; dThz = O=C(O)[C@H]1CSCN1; Dab = NCC[C@H](N)C(=O)O; Dap = NC[C@H](N)C(=O)O; ξC = NC(CS)C(=O)O; Sar = CNCC(=O)O

Target: T1, Human PD-L1/PD-1 (Homo sapiens, UniProt Q9NZQ7)
T1 construct: TVMV protease cleavage site (C); made in house; host or cells: HEK293T cells
T1 sequence (Q9NZQ7 with tags, fused parts or gaps): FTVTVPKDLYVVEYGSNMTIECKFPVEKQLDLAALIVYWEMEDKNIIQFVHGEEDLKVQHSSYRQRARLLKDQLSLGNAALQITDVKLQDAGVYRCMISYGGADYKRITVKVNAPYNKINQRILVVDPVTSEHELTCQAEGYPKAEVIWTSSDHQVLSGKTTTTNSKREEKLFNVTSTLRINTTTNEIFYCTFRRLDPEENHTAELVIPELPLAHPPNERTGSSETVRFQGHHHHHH
Assay: HTRF Human PD-L1/PD-1 binding assay (PD-1-Ig/PD-L1-His)
Details: PD-L1-His 10 nM, PD-1-Ig 20 nM; class symbol; read-out: HTRF Human PD-L1/PD-1 Binding Assay IC50 Range
Source text: Methods for Testing the Ability of Macrocyclic Peptides to Compete for the Binding of PD-1 to PD-L1 Using Homogenous Time-Resolved Fluorescence (HTRF) Binding Assays
The ability of the macrocyclic peptides of the present disclosure to bind to PD-L1 was investigated using a PD-1/PD-L1 Homogenous Time-Resolved Fluorescence (HTRF) binding assay.
Homogenous Time-Resolved Fluorescence (HTRF) Assays of Binding of Soluble PD-1 to Soluble PD-L1. Soluble PD-1 and soluble PD-L1 refers to proteins with carboxyl-end truncations that remove the transmembrane-spanning regions and are fused to heterologous sequences, specifically the Fc portion of the human immunoglobuling G sequence (Ig) or the hexahistidine epitope tag (His). All binding studies were performed in an HTRF assay buffer consisting of dPBS supplemented with 0.1% (w/v) bovine serum albumin and 0.05% (v/v) Tween-20. For the PD-1-Ig/PD-L1-His binding assay, inhibitors were pre-incubated with PD-L1-His (10 nM final) for 15 m in 4 μl of assay buffer, followed by addition of PD-1-Ig (20 nM final) in 1 μl of assay buffer and further incubation for 15 m. PD-L1 fusion proteins from either human, cynomolgus macaques, or mouse were used. HTRF detection was achieved using europium crypate-labeled anti-Ig monoclonal antibody (1 nM final) and allophycocyanin (APC) labeled anti-His monoclonal antibody (20 nM final). Antibodies were diluted in HTRF detection buffer and 5 μl was dispensed on top of binding reaction. The reaction was allowed to equilibrate for 30 minutes and signal (665 nm/620 nm ratio) was obtained using an EnVision fluorometer. Additional binding assays were established between PD-1-Ig/PD-L2-His (20 and 5 nM, respectively), CD80-His/PD-L1-Ig (100 and 10 nM, respectively) and CD80-His/CTLA4-Ig (10 and 5 nM, respectively). Competition studies between biotinylated Compound No. 71 and human PD-L1-His were performed as follows. Macrocyclic peptide inhibitors were pre-incubated with PD-L1-His (10 nM final) for 60 minutes in 4 μl of assay buffer followed by addition of biotinylated Compound No. 71 (0.5 nM final) in 1 μl of assay buffer. Binding was allowed to equilibrate for 30 minutes followed by addition of europium crypated labeled Streptavidin (2.5 pM final) and APC-labeled anti-His (20 nM final) in 5 μl of HTRF buffer. The reaction was allowed to equilibrate for 30 m and signal (665 nm/620 nm ratio) was obtained using an EnVision fluorometer.
Recombinant Proteins. Carboxyl-truncated human PD-1 (amino acids 25-167) with a C-terminal human Ig epitope tag [hPD-1 (25-167)-3S-IG] and human PD-L1 (amino acids 18-239) with a C-terminal His epitope tag [hPD-L1([…])-tobacco vein mottling virus protease cleavage site (TVMV)-His] were expressed in HEK293T cells and purified sequentially by rProteinA affinity chromatography and size exclusion chromatography.

Structure (SMILES)	IC50
CCCC[C@H]1C(=O)N(C)[C@@H](CCCC)C(=O)N[C@@H](CCC(=O)O)C(=O)N[C@H](C(=O)NCC(N)=O)CSCC(=O)N[C@@H](Cc2ccc(OC)cc2)C(=O)N(C)[C@@H](C)C(=O)N[C@@H](CC(N)=O)C(=O)N2CCC[C@H]2C(=O)N[C@@H](CN)C(=O)N[C@@H](CCCCN)C(=O)N2C[C@H](O)C[C@H]2C(=O)N[C@@H](Cc2c[nH]c3ccccc23)C(=O)N[C@@H](CCN)C(=O)N[C@@H](Cc2c[nH]c3ccccc23)C(=O)N1C [Example 7121] ({CH2CO}-Y(Me)[NMeA]NP[Dap]K[Hyp]W[Dab]W[NMeNle][NMeNle]ECG-NH2; thioether N-14)	1 to 9.9 nM
CCCC[C@H]1C(=O)N2CCC[C@@H]2C(=O)N[C@@H](CO)C(=O)N[C@@H](C(C)C)C(=O)N(C)[C@@H](Cc2ccccc2)C(=O)N[C@@H](Cc2ccc(O)cc2)C(=O)N(C)CC(=O)N[C@@H](Cc2c[nH]c3ccccc23)C(=O)N[C@@H](Cc2ccc(O)cc2)C(=O)N[C@@H](CC(C)C)C(=O)N[C@H](C(=O)NCC(N)=O)CSCC(=O)N[C@@H](Cc2ccccc2)C(=O)N(C)[C@@H](Cc2ccccc2)C(=O)N1C [Example 10062] ({CH2CO}-F[NMeF][NMeNle][dP]SV[NMeF]Y[Sar]WYLCG-NH2; thioether N-13)	10 to 99.9 nM
CCCC[C@H]1C(=O)N2CCC[C@@H]2C(=O)N[C@@H](CC(=O)O)C(=O)N[C@@H](C(C)C)C(=O)N(C)[C@@H](Cc2ccccc2)C(=O)N[C@@H](Cc2ccc(O)cc2)C(=O)N2CCC[C@@H]2C(=O)N[C@@H](Cc2c[nH]c3ccccc23)C(=O)N[C@@H](Cc2ccc(O)cc2)C(=O)N[C@@H](CCCCN)C(=O)N[C@H](C(=O)NCC(N)=O)CSCC(=O)N[C@@H](Cc2cc(F)c(F)c(F)c2)C(=O)N(C)[C@@H](Cc2ccccc2)C(=O)N1C [Example 10096] ({CH2CO}-[Phe(3,4,5-F3)][NMeF][NMeNle][dP]DV[NMeF]Y[dP]WYKCG-NH2; thioether N-13)	1 to 9.9 nM
CCCC[C@H]1C(=O)N2CCC[C@@H]2C(=O)N[C@@H](CC(=O)O)C(=O)N[C@@H](C(C)C)C(=O)N(C)[C@@H](C(C)C)C(=O)N[C@@H](Cc2ccc(O)cc2)C(=O)N2CCCC[C@@H]2C(=O)N[C@@H](Cc2c[nH]c3ccccc23)C(=O)N[C@@H](Cc2ccc(O)cc2)C(=O)N[C@@H](CC(C)CC)C(=O)N[C@H](C(=O)NCC(N)=O)CSCC(=O)N[C@@H](Cc2ccc(F)cc2)C(=O)N(C)[C@@H](Cc2ccccc2)C(=O)N1C (stereo partly drawn) [Example 9242] ({CH2CO}-[Phe(4-F)][NMeF][NMeNle][dP]DV[NMeV]Y[dPip]WY[hIle(4ξ)]CG-NH2; thioether N-13)	1000 to 10000 nM
CCCC[C@H]1C(=O)N(C)[C@@H](CCCC)C(=O)N[C@@H](CC(C)C)C(=O)N[C@H](C(=O)NCC(N)=O)CSCC(=O)N[C@@H](Cc2ccc(O)cc2)C(=O)N2CCCC[C@H]2C(=O)N[C@@H](CC(N)=O)C(=O)N2CCC[C@H]2C(=O)N[C@@H](CO)C(=O)N[C@@H](CCC(N)=O)C(=O)N2C[C@H](O)C[C@H]2C(=O)N[C@@H](Cc2c[nH]c3ccccc23)C(=O)N[C@@H](CO)C(=O)N[C@@H](Cc2cn(CC(=O)O)c3ccccc23)C(=O)N1C [Example 1304] ({CH2CO}-Y[Pip]NPSQ[Hyp]WS[Trp(1-CH2COOH)][NMeNle][NMeNle]LCG-NH2; thioether N-14)	10 to 99.9 nM
CCCC[C@H]1C(=O)N2CCC[C@@H]2C(=O)N[C@@H](CC(=O)O)C(=O)N[C@@H](C(C)C)C(=O)N(C)[C@@H](Cc2ccccc2)C(=O)N[C@@H](CCC(=O)O)C(=O)N2CSC[C@@H]2C(=O)N[C@@H](Cc2c[nH]c3ccccc23)C(=O)N[C@@H](Cc2ccc(O)cc2)C(=O)N[C@@H](CC(C)C)C(=O)N[C@H](C(=O)NCC(N)=O)CSCC(=O)N[C@@H](Cc2cc(F)c(F)c(F)c2)C(=O)N(C)[C@@H](Cc2ccccc2)C(=O)N1C [Example 10090] ({CH2CO}-[Phe(3,4,5-F3)][NMeF][NMeNle][dP]DV[NMeF]E[dThz]WYLCG-NH2; thioether N-13)	1 to 9.9 nM
CCCC[C@H]1C(=O)N2C[C@H](O)C[C@@H]2C(=O)N[C@@H](CC(=O)O)C(=O)N[C@@H](C(C)C)C(=O)N(C)[C@@H](Cc2ccccc2)C(=O)N[C@@H](CCC(=O)O)C(=O)N2C[C@H](O)C[C@@H]2C(=O)N[C@@H](Cc2c[nH]c3ccccc23)C(=O)N[C@@H](Cc2ccc(O)cc2)C(=O)N[C@@H](CC(N)=O)C(=O)N[C@H](C(=O)NCC(N)=O)CSCC(=O)N[C@@H](Cc2cc(F)c(F)c(F)c2)C(=O)N(C)[C@@H](Cc2ccccc2)C(=O)N1C [Example 9338] ({CH2CO}-[Phe(3,4,5-F3)][NMeF][NMeNle][d(cisHyp)]DV[NMeF]E[d(cisHyp)]WYNCG-NH2; thioether N-13)	1 to 9.9 nM

Now from value to compound:

IC50	Structure (SMILES)
10 to 99.9 nM	CCCC[C@H]1C(=O)N(C)[C@@H](CCCC)C(=O)N[C@@H](CCCNC(=N)N)C(=O)N[C@H](C(=O)NCC(N)=O)CSCC(=O)N[C@@H](Cc2ccc(O)cc2)C(=O)N(C)[C@@H](C)C(=O)N[C@@H](CC(N)=O)C(=O)N2CCC[C@H]2C(=O)N[C@@H](CCN)C(=O)N[C@@H](CC(C)C)C(=O)N2C[C@H](O)C[C@H]2C(=O)N[C@@H](Cc2c[nH]c3ccccc23)C(=O)N[C@@H](C(C)(C)C)C(=O)N[C@@H](Cc2c[nH]c3ccccc23)C(=O)N1C [Example 11001] ({CH2CO}-Y[NMeA]NP[Dab]L[Hyp]W[Tle]W[NMeNle][NMeNle]RCG-NH2; thioether N-14)
1000 to 10000 nM	CCCC[C@H]1NC(=O)[C@H](Cc2c[nH]c3ccccc23)NC(=O)[C@H](CO)NC(=O)[C@H](Cc2c[nH]c3ccccc23)NC(=O)[C@@H]2C[C@@H](O)CN2C(=O)[C@H](CCCN)NC(=O)[C@H](Cc2cnc[nH]2)NC(=O)[C@@H]2CCCN2C(=O)[C@H](CC(=O)O)NC(=O)[C@H](C)N(C)C(=O)[C@H](Cc2ccc(O)cc2)NC(=O)CSCC(C(=O)NCC(N)=O)NC(=O)[C@H](CCC(=O)O)NC(=O)[C@H](CCCC)N(C)C1=O (stereo partly drawn) [Example 10130] ({CH2CO}-Y[NMeA]DPH[Orn][Hyp]WSW[dNle][NMeNle]E[ξC]G-NH2; thioether N-14)
1000 to 10000 nM	CCCC[C@H]1C(=O)N[C@@H](CC(N)=O)C(=O)N2CCC[C@H]2C(=O)N[C@@H](CO)C(=O)N[C@@H](CCO)C(=O)N2C[C@H](O)C[C@H]2C(=O)N[C@@H](Cc2c[nH]c3ccccc23)C(=O)N[C@@H](CCCN)C(=O)N[C@@H](Cc2c[nH]c3ccccc23)C(=O)N(C)[C@@H](C)C(=O)N(C)[C@@H](C)C(=O)N[C@@H](CCCNC(=N)N)C(=O)NC(C(=O)NCC(N)=O)CSCC(=O)N[C@@H](Cc2ccc(O)cc2)C(=O)N1C (stereo partly drawn) [Example 10201] ({CH2CO}-Y[NMeNle]NPS[hSer][Hyp]W[Orn]W[NMeA][NMeA]R[ξC]G-NH2; thioether N-14)
1 to 9.9 nM	CCCC[C@H]1C(=O)N2CCC[C@@H]2C(=O)N[C@@H](CC(=O)O)C(=O)N[C@@H](C(C)C)C(=O)N(C)[C@@H](Cc2ccccc2)C(=O)N[C@@H](CCCN)C(=O)N2CCC[C@@H]2C(=O)N[C@@H](Cc2c[nH]c3ccccc23)C(=O)N[C@@H](Cc2ccc(O)cc2)C(=O)N[C@@H](CCO)C(=O)N[C@H](C(=O)NCC(N)=O)CSCC(=O)N[C@@H](Cc2cc(F)c(F)c(F)c2)C(=O)N(C)[C@@H](Cc2ccccc2)C(=O)N1C [Example 10175] ({CH2CO}-[Phe(3,4,5-F3)][NMeF][NMeNle][dP]DV[NMeF][Orn][dP]WY[hSer]CG-NH2; thioether N-13)
1 to 9.9 nM	CCCC[C@H]1C(=O)N2CCC[C@@H]2C(=O)N[C@@H](CCC(=O)O)C(=O)N[C@@H](C(C)C)C(=O)N(C)[C@@H](Cc2ccccc2)C(=O)N[C@@H](CCC(=O)O)C(=O)N2CCCC[C@@H]2C(=O)N[C@@H](Cc2c[nH]c3ccccc23)C(=O)N[C@@H](Cc2ccc(O)cc2)C(=O)N[C@@H](CC(C)C)C(=O)N[C@H](C(=O)NCC(N)=O)CSCC(=O)N[C@@H](Cc2cc(F)c(F)c(F)c2)C(=O)N(C)[C@@H](Cc2ccc(F)cc2)C(=O)N1C [Example 10576] ({CH2CO}-[Phe(3,4,5-F3)][NMePhe(4-F)][NMeNle][dP]EV[NMeF]E[dPip]WYLCG-NH2; thioether N-13)
